According to EP1202975B1, “SUBSTITUTED POLYCYCLIC ARYL AND HETEROARYL PYRAZINONES USEFUL FOR SELECTIVE INHIBITION OF THE COAGULATION CASCADE” (Pharmacia Corporation, priority 1999, dated 2000):
Read-outs that look alike come from different tables or passages of the source.

What was measured:
TF-VIIa = target: T1, TF-VIIa (Homo sapiens, UniProt P08709); test: TF-VIIa Assay; type: biochemical
T1 construct: 2nM recombinant human factor VIIa; purchased American Diagnostica, Greenwich CT; host or cells: soluble TF made in house in E. coli

Human factor Xa = Human factor Xa (Homo sapiens, UniProt P00742)
[1] = read-out: IC50 or % Inhibition TF-VIIa (30 µM); cells given as a plain number (IC50)
[2] = cells given as a plain number (IC50); read-out: IC50 or % Inhibition TF-VIIa (30 µM)
[3] = read-out: IC50 or % Inhibition TF-VIIa (30 µM); cells without % sign: IC50

T1 sequence (P08709 213-466 limits assumed): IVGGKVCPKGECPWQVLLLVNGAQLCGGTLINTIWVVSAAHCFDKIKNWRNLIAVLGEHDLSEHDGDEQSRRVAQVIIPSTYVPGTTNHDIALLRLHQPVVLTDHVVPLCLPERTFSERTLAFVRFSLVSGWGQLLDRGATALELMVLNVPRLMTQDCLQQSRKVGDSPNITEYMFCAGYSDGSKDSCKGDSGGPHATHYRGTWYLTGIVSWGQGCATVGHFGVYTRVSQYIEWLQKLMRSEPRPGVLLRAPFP
T1 sequence (P08709 61-212 limits assumed): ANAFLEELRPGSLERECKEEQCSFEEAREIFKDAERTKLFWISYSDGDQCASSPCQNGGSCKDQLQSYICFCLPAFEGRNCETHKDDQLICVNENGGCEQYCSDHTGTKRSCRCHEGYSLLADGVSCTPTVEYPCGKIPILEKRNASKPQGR
T1 sequence (P13726 33-251 partner limits assumed): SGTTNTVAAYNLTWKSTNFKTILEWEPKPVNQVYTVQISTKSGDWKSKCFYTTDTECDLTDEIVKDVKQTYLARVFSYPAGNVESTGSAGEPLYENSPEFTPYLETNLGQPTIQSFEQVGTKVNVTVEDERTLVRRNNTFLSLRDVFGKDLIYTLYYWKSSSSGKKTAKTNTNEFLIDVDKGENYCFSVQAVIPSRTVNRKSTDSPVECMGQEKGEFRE
Human factor Xa, sequence (P00742 235-488 limits assumed): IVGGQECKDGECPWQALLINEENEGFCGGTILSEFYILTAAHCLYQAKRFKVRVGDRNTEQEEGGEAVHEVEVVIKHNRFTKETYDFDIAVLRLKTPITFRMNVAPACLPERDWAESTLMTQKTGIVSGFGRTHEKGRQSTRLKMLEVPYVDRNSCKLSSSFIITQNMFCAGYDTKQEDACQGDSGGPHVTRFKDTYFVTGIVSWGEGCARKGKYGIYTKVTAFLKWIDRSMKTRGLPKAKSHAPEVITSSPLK
Human factor Xa, sequence (P00742 41-179 limits assumed): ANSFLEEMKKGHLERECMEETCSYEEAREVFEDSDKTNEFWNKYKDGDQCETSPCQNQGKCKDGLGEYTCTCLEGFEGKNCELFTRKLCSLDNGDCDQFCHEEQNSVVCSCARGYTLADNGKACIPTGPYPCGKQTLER

% Inhibition TF-VIIa (100 µM) (TF-VIIa) [%] | % Inhibition Factor Xa (100 µM) (Human factor Xa) [%] | IC50 (TF-VIIa; [1]) [µM] | IC50 or % Inhibition Factor Xa (30 µM) (Human factor Xa) [%] | SMILES | other results
0 | 1 | – | – | Cc1c(Cl)nc(NCc2ccccc2)c(=O)n1CC(=O)NCCc1ccncc1 [Example E-0001] | –
0 | 0 | – | – | O=C(Cn1c(CCc2ccccc2)c(Cl)nc(NCCN2CCOCC2)c1=O)NCCc1ccncc1 [Example E-0071] | –
– | – | 14.6 | 6 | CC1CCCC(Nc2nc(Cl)c(-c3ccccc3)n(CC(=O)NCc3ccc(C(=N)N)cc3)c2=O)C1C (stereo not shown) [1512-23] | –
0 | 0 | – | – | O=C(Cn1c(-c2ccc(-c3ccccc3)cc2)c(Cl)nc(NCc2ccncc2)c1=O)NCCc1ccncc1 [Example E-0056] | –
– | – | – | 0 | N=C(N)c1ccc(CNC(=O)Cn2c(-c3ccccc3)c(Cl)nc(NC3CCCCC3)c2=O)cc1 [1517-25] | IC50 (TF-VIIa; [2]): 1.4 µM
– | – | – | 20 | N=C(N)c1ccc(CNC(=O)Cn2c(-c3cccc(N)c3)c(Cl)nc(NC3CCCC3)c2=O)c(F)c1 [1543-34] | IC50 (TF-VIIa; [3]): 0.08 µM
– | – | 2 | 0 | CSCC(C(=O)NCc1ccc(C(=N)N)cc1)n1c(-c2ccccc2)c(Cl)nc(NC2CCC2)c1=O (stereo not shown) [1517-10] | –
– | – | 1.69 | 9 | N=C(N)c1ccc(CNC(=O)Cn2c(-c3ccccc3)c(Cl)nc(NCc3ccncc3)c2=O)cc1 [1471-11] | –
– | – | 0.82 | 23 | N=C(N)c1ccc(CNC(=O)Cn2c(-c3ccccc3)c(Cl)nc(NCCc3cccnc3)c2=O)cc1 [1471-16] | –
0 | 0 | – | – | O=C(Cn1c(CCc2ccccc2)c(Cl)nc(NCc2ccncc2)c1=O)NCCc1ccncc1 [Example E-0072] | –
0 | 0 | – | – | O=C(Cn1c(Cc2ccccc2)c(Cl)nc(NCCc2cccc(Cl)c2)c1=O)NCCc1ccncc1 [Example E-0059] | –
– | – | 18 | 4 | N=C(N)c1ccc(CNC(=O)Cn2c(-c3ccccc3)c(Cl)nc(NCC3COc4ccccc4O3)c2=O)cc1 (stereo not shown) [1512-01] | –
– | – | – | 6 | CC(=O)Nc1cccc(-c2c(Cl)nc(NC(C)C)c(=O)n2CC(=O)NCCc2ccc(C(=N)N)cc2)c1 [Example 68] | IC50 or % Inhibition TF-VIIa (30 µM) (TF-VIIa): 32%
– | – | – | 19 | N=C(N)c1ccc(CNC(=O)Cn2c(-c3cccc(N)c3)c(Cl)nc(NCCCn3ccnc3)c2=O)cc1 [1543-07] | IC50 (TF-VIIa; [3]): 0.21 µM
– | – | 9 | 0 | C[C@@H](C(=O)NCc1ccc(C(=N)N)cc1)n1c(-c2ccccc2)c(Cl)nc(NCc2ccccc2)c1=O [1517-03] | –
– | – | – | 0 | N=C(N)c1ccc(CNC(=O)Cn2c(-c3cccc(N)c3)c(Cl)nc(NC3CCC3)c2=O)cc1F [Example 40] | IC50 (TF-VIIa; [2]): 0.06 µM
– | – | – | 19 | CN(C)CCCNc1nc(Cl)c(-c2ccccc2)n(CC(=O)NCc2ccc(C(=N)N)cc2)c1=O [1507-47] | IC50 (TF-VIIa; [2]): 17.6 µM
0 | 0 | – | – | O=C(Cn1c(Cc2ccccc2)c(Cl)nc(NCCN2CCOCC2)c1=O)NCCc1ccncc1 [Example E-0063] | –
– | – | 11.3 | 5 | CCCCC(CC)Nc1nc(Cl)c(-c2ccccc2)n(CC(=O)NCc2ccc(C(=N)N)cc2)c1=O (stereo not shown) [1512-12] | –
0 | 0 | – | – | O=C(Cn1c(-c2ccc3c(c2)OCO3)c(Cl)nc(NCc2ccncc2)c1=O)NCCc1ccncc1 [Example E-0048] | –
– | – | 5.7 | 0 | CSCC(C(=O)NCc1ccc(C(=N)N)cc1)n1c(-c2ccccc2)c(Cl)nc(NCc2ccccc2)c1=O (stereo not shown) [1517-04] | –
– | – | – | 34 | N=C(N)c1ccc(CNC(=O)Cn2c(-c3ccc(Cl)cc3)c(Cl)nc(NCCN3CCOCC3)c2=O)cc1 [1471-20] | IC50 or % Inhibition TF-VIIa (30 µM) (TF-VIIa): 42%
– | – | 5.7 | 11 | N=C(N)c1ccc(CNC(=O)Cn2c(-c3ccccc3)c(Cl)nc(NCc3cc(C(F)(F)F)cc(C(F)(F)F)c3)c2=O)cc1 [1507-40] | –
– | – | 19.2 | 3 | COc1cccc(CNc2nc(Cl)c(-c3ccccc3)n(CC(=O)NCc3ccc(C(=N)N)cc3)c2=O)c1OC [1512-02] | –
– | – | 12.4 | 0 | CCc1c(Cl)nc(NCCc2ccc(Cl)cc2)c(=O)n1CC(=O)NCc1ccc(C(=N)N)cc1 [1471-58] | –
– | – | – | 0 | N=C(N)NCC#CCNC(=O)Cn1c(-c2ccccc2)cnc(NCCc2ccccc2)c1=O [Example 36] | IC50 or % Inhibition TF-VIIa (30 µM) (TF-VIIa): 5%
– | – | – | 11 | Cc1cc(Cl)cc(Cl)c1CNc1nc(Cl)c(-c2ccccc2)n(CC(=O)NCc2ccc(C(=N)N)cc2)c1=O [1512-45] | IC50 or % Inhibition TF-VIIa (30 µM) (TF-VIIa): 27%

% Inhibition TF-VIIa (100 µM) (TF-VIIa) [%] | % Inhibition Factor Xa (100 µM) (Human factor Xa) [%] | IC50 (TF-VIIa; [1]) [µM] | IC50 or % Inhibition Factor Xa (30 µM) (Human factor Xa) [%] | SMILES | other results
0 | 0 | – | – | O=C(Cn1c(-c2ccccc2)c(Cl)nc(NCCc2ccc(Cl)cc2)c1=O)NCCc1ccncc1 [Example E-0012] | –
0 | 0 | – | – | O=C(Cn1c(-c2ccc(-c3ccccc3)cc2)c(Cl)nc(NCCN2CCOCC2)c1=O)NCCc1ccncc1 [Example E-0055] | –
– | – | 5.8 | 18 | N=C(N)c1ccc(CNC(=O)Cn2c(-c3ccccc3)c(Cl)nc(NC3CCCc4ccccc43)c2=O)cc1 (stereo not shown) [1507-16] | –
– | – | – | 12 | CC(C)Nc1nc(Cl)c(-c2cccc(C(=O)O)c2)n(CC(=O)NCc2ccc(C(=N)N)cc2)c1=O [Example 65] | IC50 (TF-VIIa; [2]): 0.36 µM
– | – | – | 14 | CC(C)CNc1nc(Cl)c(-c2cccc(N)c2)n(CC(=O)NCc2ccc(C(=N)N)cc2F)c1=O [1543-38] | IC50 (TF-VIIa; [3]): 0.09 µM
– | – | 21.9 | 5 | N=C(N)c1ccc(CNC(=O)Cn2c(-c3ccccc3)c(Cl)nc(NCc3cc(F)c(F)c(F)c3)c2=O)cc1 [1512-32] | –
0 | 0 | – | – | O=C(Cn1c(Cc2ccccc2)c(Cl)nc(NCCc2ccc(Cl)cc2)c1=O)NCCc1ccncc1 [Example E-0060] | –
– | – | 5.6 | 10 | CC(C)Nc1nc(Cl)c(-c2cccc(N)c2)n(CC(=O)NCCc2ccc(C(=N)N)cc2)c1=O [Example 62] | –
– | – | 6 | 9 | N=C(N)c1ccc(CNC(=O)Cn2c(-c3ccccc3)c(Cl)nc(NCCc3ccc(Cl)c(Cl)c3)c2=O)cc1 [1507-44] | –
– | – | 0.5 | 0 | CC(C)Nc1nc(Cl)c(-c2cccc(N)c2)n(CC(=O)NCc2ccc(C(=N)N)c(F)c2)c1=O [Example 42] | –
– | – | – | 6 | COc1ccc(-c2c(Cl)nc(NCCN3CCOCC3)c(=O)n2CC(=O)NCc2ccc(C(=N)N)cc2)cc1 [1471-36] | IC50 or % Inhibition TF-VIIa (30 µM) (TF-VIIa): 11%
0 | 0 | – | – | COc1ccc(-c2c(Cl)nc(NCc3ccccc3)c(=O)n2CC(=O)NCCc2ccncc2)cc1 [Example E-0033] | –
– | – | – | 45 | N=C(N)c1ccc(CNC(=O)Cn2c(-c3ccccc3)c(Cl)nc(NCCc3ccc(Cl)cc3)c2=O)cc1 [1471-10] | IC50 (TF-VIIa; [2]): 0.6 µM
– | – | 2.85 | 14 | Cc1c(Cl)nc(NCCc2cccc(Cl)c2)c(=O)n1CC(=O)NCc1ccc(C(=N)N)cc1 [1471-6] | –
– | – | 12.9 | 4 | N=C(N)c1ccc(CNC(=O)Cn2c(-c3ccccc3)c(Cl)nc(NCCCN3CCCC3=O)c2=O)cc1 [1507-19] | –
– | – | 0.25 | 0 | CC(C)Nc1ncc(-c2cccc(N)c2)n(CC(=O)NCc2ccc(C(=N)N)c(F)c2)c1=O [Example 43] | –
– | – | – | 14 | Cc1cccc(Cl)c1CNc1nc(Cl)c(-c2ccccc2)n(CC(=O)NCc2ccc(C(=N)N)cc2)c1=O [1512-31] | IC50 or % Inhibition TF-VIIa (30 µM) (TF-VIIa): 43%
– | – | 5 | 0 | CCc1c(Cl)nc(NCCc2ccncc2)c(=O)n1CC(=O)NCc1ccc(C(=N)N)cc1 [1471-61] | –
0 | 0 | – | – | O=C(Cn1c(-c2ccc3c(c2)OCO3)c(Cl)nc(NCCN2CCOCC2)c1=O)NCCc1ccncc1 [Example E-0047] | –
– | – | – | 12 | N=C(N)c1ccc(CNC(=O)Cn2c(-c3cccc(N)c3)c(Cl)nc(NCCCO)c2=O)cc1 [1543-13] | IC50 (TF-VIIa; cells without % sign: IC50; read-out: IC50 or % Inhibition TF-VIIa (30 µM)): 0.09 µM
0 | 0 | – | – | O=C(Cn1c(-c2ccc3c(c2)OCO3)c(Cl)nc(NCc2ccccc2)c1=O)NCCc1ccncc1 [Example E-0041] | –
4 | 6 | – | – | COc1ccc(-c2c(Cl)nc(NCCc3ccc(Cl)cc3)c(=O)n2CC(=O)NCCc2cccnc2)cc1 [Example E-0107] | –
– | – | 3.62 | 10 | Cc1c(Cl)nc(NCCc2ccc(Cl)cc2)c(=O)n1CC(=O)NCc1ccc(C(=N)N)cc1 [1471-2] | –
0 | 0 | – | – | O=C(Cn1c(CCc2ccccc2)c(Cl)nc(NCCc2ccc(Cl)cc2)c1=O)NCCc1ccncc1 [Example E-0068] | –
– | – | – | 22 | COc1ccc(-c2c(Cl)nc(NCc3ccccc3)c(=O)n2CC(=O)NCc2ccc(C(=N)N)cc2)cc1 [1471-33] | IC50 or % Inhibition TF-VIIa (30 µM) (TF-VIIa): 31%
0 | 0 | – | – | O=C(Cn1c(-c2ccc3c(c2)OCO3)c(Cl)nc(NCCc2ccncc2)c1=O)NCCc1ccncc1 [Example E-0046] | –
